Experimental data as given in US11414450B1, “Aminoglycosides and uses thereof” (REVAGENIX, INC., priority 2017, dated 2022).
≈ marks a conversion by molar mass, not a printed value.

Experiments:
E. coli ATCC 25922 = assay: Minimum inhibitory concentration (broth microdilution, CLSI), E. coli ATCC 25922; type: cell-based
Procedure: (§1) Minimum inhibitory concentrations for the example compounds herein are determined by the broth microdilution method in accordance with the Clinical and Laboratory Standards Institute (CLSI) guidelines. In brief, organism suspensions are adjusted to a 0.5 McFarland standard to yield a final inoculum between 3×10^5 and 7×10^5 colony-forming units (CFU)/mL. Compound dilutions and inocula are made in sterile, cation adjusted Mueller-Hinton Broth (Beckton Dickinson). The inoculum is prepared by suspension of a colony from an agar plate that is prepared the previous day. Bacteria are suspended in sterile saline and added to each assay plate to obtain a final concentration of 5×10^5 CFU/mL. An inoculum volume of 100 μL is added to wells containing 100 μL of broth with 2-fold serial dilutions of the compound. All inoculated microdilution trays are incubated in ambient air at 35° C. for 18-24 hours. Following incubation, the lowest concentration of the compound that prevents visible growth (OD 600 nm<0.05) is recorded as the MIC. […] Performance of the assay is monitored by the use of laboratory quality-control strains and a compound with a defined MIC spectrum (such as levofloxacin), in accordance with CLSI guidelines. Compounds are tested against multiple microbiologic panels. Panels include: 1) a multi-species primary screening panel that includes multiple defined AG-R mechanisms; 2) a panel of isogenic strains carrying different common mechanisms of AG-R that allows characterization of the SAR for AMEs, RMTs, and entry and efflux resistance mechanisms; and 3) panels of recent clinical isolates selected from Phase 3 studies and ongoing global surveillance.

E. coli efflux parent = assay: MIC broth microdilution, E. coli efflux parent strain; type: cell-based
Procedure: as §1

[1] = tested on: E. coli Δefflux (tolC efflux pump knocked-out); assay: MIC broth microdilution, E. coli Δefflux strain (tolC knocked out); type: cell-based
Procedure: as §1

[2] = tested on: E. coli isogenic strain empty vector; assay: MIC broth microdilution, E. coli isogenic strain, empty vector; type: cell-based; conditions: for Geometric Mean MIC values, E. coli isogenic strains, empty vector: Table 2
Procedure: as §1

[3] = tested on: E. coli isogenic strain aac(6′)-Ib; assay: MIC broth microdilution, E. coli isogenic strain aac(6′)-Ib; type: cell-based; conditions: for Geometric Mean MIC values, E. coli isogenic strains, aac(6′)-Ib: Table 2
Procedure: as §1

[4] = tested on: E. coli isogenic strain aph(3′)-II; assay: MIC broth microdilution, E. coli isogenic strain aph(3′)-II; type: cell-based; conditions: for Geometric Mean MIC values, E. coli isogenic strains, aph(3′)-II: Table 2
Procedure: as §1

[5] = tested on: E. coli isogenic strain aph(3′)-Ia; assay: MIC broth microdilution, E. coli isogenic strain aph(3′)-Ia; type: cell-based; conditions: for Geometric Mean MIC values, E. coli isogenic strains, aph(3′)-Ia: Table 2, aph(3′)-Ia has activity at both the 3′-hydroxy and 5″-hydroxy positions
Procedure: as §1

[6] = tested on: E. coli isogenic strain ant(4′)-Ia; assay: MIC broth microdilution, E. coli isogenic strain ant(4′)-Ia; type: cell-based; conditions: Table 2
Procedure: as §1

[7] = tested on: E. coli isogenic strain armA; assay: MIC broth microdilution, E. coli isogenic strain armA; type: cell-based; conditions: for Geometric Mean MIC values, E. coli isogenic strains, armA: Table 2
Procedure: as §1

[8] = tested on: E. coli isogenic strain nmpA; assay: MIC broth microdilution, E. coli isogenic strain nmpA; type: cell-based; conditions: for Geometric Mean MIC values, E. coli isogenic strains, nmpA: Table 2
Procedure: as §1

P. aeruginosa ATCC 27853 = assay: MIC broth microdilution, P. aeruginosa ATCC 27853; type: cell-based; conditions: Table 1; geometric mean
Procedure: as §1

[9] = tested on: P. aeruginosa efflux parent; assay: MIC broth microdilution, P. aeruginosa efflux parent strain; type: cell-based; conditions: Table 1; geometric mean
Procedure: as §1

[10] = tested on: P. aeruginosa Δefflux (MexAB-OprM, MexCD-OprJ, MexEF-OprN knocked out); assay: MIC broth microdilution, P. aeruginosa Δefflux strain; type: cell-based; conditions: Table 1, MexEF-OprN efflux pumps knocked out
Procedure: as §1

translation = assay: Translation Inhibition Assay; type: biochemical; conditions: Table 1
Source text: Biological Example 2: Translation Inhibition Assay

| SMILES | Geometric Mean MIC values, E. coli ATCC 25922 (E. coli ATCC 25922; Table 2) | Geometric Mean MIC values, E. coli efflux parent (E. coli efflux parent; Table 2) | Geometric Mean MIC values, E. coli Δefflux ([1]; Table 2) | Geometric Mean MIC values, E. coli isogenic strains, empty vector [2] | Geometric Mean MIC values, E. coli isogenic strains, aac(6′)-Ib [3] | Geometric Mean MIC values, E. coli isogenic strains, aph(3′)-II [4] | Geometric Mean MIC values, E. coli isogenic strains, aph(3′)-Ia [5] | Geometric Mean MIC values, E. coli isogenic strains, ant(4′)-Ia [6] | Geometric Mean MIC values, E. coli isogenic strains, armA [7] | Geometric Mean MIC values, E. coli isogenic strains, nmpA [8] | further results |
| --- | --- | --- | --- | --- | --- | --- | --- | --- | --- | --- | --- |
| NCC1OC(OC2C(N)CC(N)C(O)C2OC2OC(CO)C(OC3OC(CN)C(O)C(O)C3N)C2O)C(N)CC1O (stereo not shown) [drawing 864, reference compound] | 0.71 µg/mL | 0.63 µg/mL | 0.25 µg/mL | 0.32 µg/mL | 2 µg/mL | 0.25 µg/mL | 38 µg/mL | 2 µg/mL | 0.6 µg/mL | >64 µg/mL | – |
| NCC1OC(OC2C(CO)OC(OC3C(O)C(N)CC(N)C3OC3OC(CN)C(O)C(F)C3N)C2O)C(N)C(O)C1O (stereo not shown) [drawing 869] | 1 µg/mL | 1 µg/mL | 1 µg/mL | 1 µg/mL | 4 µg/mL | 1 µg/mL | >64 µg/mL | 1 µg/mL | 4 µg/mL | >64 µg/mL | – |
| NCC1OC(OC2C(CO)OC(OC3C(O)C(N)CC(N)C3OC3OC(CN)C(O)C(F)C3N)C2O)C(N)C(O)C1O (stereo not shown) [drawing 868] | 16 µg/mL | 8 µg/mL | 4 µg/mL | 16 µg/mL | >64 µg/mL | 8 µg/mL | >64 µg/mL | 32 µg/mL | 64 µg/mL | >64 µg/mL | – |
| CO[C@@H]1[C@@H](O[C@@H]2O[C@H](CO)[C@@H](O[C@H]3O[C@@H](CN)[C@@H](O)[C@H](O)[C@H]3N)[C@H]2O)[C@H](O[C@H]2O[C@H](CN)CC[C@H]2N)[C@@H](N)C[C@H]1N [drawing 889] | – | – | – | – | – | – | – | – | – | – | MIC (E. coli ATCC 25922; Escherichia coli, ATCC25922, E. coli ATCC 25922, broth microdilution, read-out: Geometric Mean MIC values, E. coli ATCC 25922): 1 µg/mL (≈ 1.68 µM); MIC (E. coli efflux parent; Escherichia coli, E. coli efflux parent strain, read-out: Geometric Mean MIC values, E. coli efflux parent): 0.5 µg/mL (≈ 0.838 µM); Geometric Mean MIC values, E. coli Δefflux ([1]; E. coli Δefflux): 0.5 µg/mL; MIC ([2]; Escherichia coli, read-out: Geometric Mean MIC values, E. coli isogenic strains empty vector): 0.5 µg/mL (≈ 0.838 µM); MIC ([3]; Escherichia coli, read-out: Geometric Mean MIC values, E. coli isogenic strains aac(6′)-Ib): 8 µg/mL (≈ 13.4 µM); MIC ([4]; Escherichia coli, read-out: Geometric Mean MIC values, E. coli isogenic strains aph(3′)-II): 0.5 µg/mL (≈ 0.838 µM); MIC ([5]; Escherichia coli, read-out: Geometric Mean MIC values, E. coli isogenic strains aph(3′)-Ia): 16 µg/mL (≈ 26.8 µM); MIC ([7]; Escherichia coli, read-out: Geometric Mean MIC values, E. coli isogenic strains armA): 0.5 µg/mL (≈ 0.838 µM); MIC ([8]; Escherichia coli, read-out: Geometric Mean MIC values, E. coli isogenic strains npmA): > 32 µg/mL |
| NCC1OC(OC2C(CO)OC(OC3C(O)C(N)CC(N)C3OC3OC(C4(N)CC4)CCC3N)C2O)C(N)C(O)C1O (stereo not shown) [drawing 859] | 1 µg/mL | 1 µg/mL | 1 µg/mL | 0.5 µg/mL | 1 µg/mL | 1 µg/mL | >32 µg/mL | – | 4 µg/mL | 32 µg/mL | – |
| NCC1OC(OC2C(CO)OC(OC3C(O)C(N)CC(N)C3OC3OC(CN)C(O)C(F)C3N)C2O)C(N)C(O)C1O (stereo not shown) [drawing 853] | – | – | – | – | – | – | – | – | – | – | Geometric Mean MIC values, E. coli ATCC 25922 (E. coli ATCC 25922; Table 1): 2 µg/mL; Geometric Mean MIC values, E. coli efflux parent (E. coli efflux parent; Table 1): 2 µg/mL; Geometric Mean MIC values, E. coli Δefflux ([1]; Table 1): 1 µg/mL; Geometric Mean MIC values, P. aeruginosa ATCC 27853 (P. aeruginosa ATCC 27853): 1 µg/mL; Geometric Mean MIC values, P. aeruginosa efflux parent [9]: 2 µg/mL; Geometric Mean MIC values, P. aeruginosa Δefflux [10]: 0.5 µg/mL; IC50 (translation): 10 nM |
